The target of assay [1] is T1, mouse Siglec-2-Fc-Avi (CD22) (Mus musculus, UniProt P35329).
T1 construct: made in house
T1 sequence (P35329 22-708 limits assumed): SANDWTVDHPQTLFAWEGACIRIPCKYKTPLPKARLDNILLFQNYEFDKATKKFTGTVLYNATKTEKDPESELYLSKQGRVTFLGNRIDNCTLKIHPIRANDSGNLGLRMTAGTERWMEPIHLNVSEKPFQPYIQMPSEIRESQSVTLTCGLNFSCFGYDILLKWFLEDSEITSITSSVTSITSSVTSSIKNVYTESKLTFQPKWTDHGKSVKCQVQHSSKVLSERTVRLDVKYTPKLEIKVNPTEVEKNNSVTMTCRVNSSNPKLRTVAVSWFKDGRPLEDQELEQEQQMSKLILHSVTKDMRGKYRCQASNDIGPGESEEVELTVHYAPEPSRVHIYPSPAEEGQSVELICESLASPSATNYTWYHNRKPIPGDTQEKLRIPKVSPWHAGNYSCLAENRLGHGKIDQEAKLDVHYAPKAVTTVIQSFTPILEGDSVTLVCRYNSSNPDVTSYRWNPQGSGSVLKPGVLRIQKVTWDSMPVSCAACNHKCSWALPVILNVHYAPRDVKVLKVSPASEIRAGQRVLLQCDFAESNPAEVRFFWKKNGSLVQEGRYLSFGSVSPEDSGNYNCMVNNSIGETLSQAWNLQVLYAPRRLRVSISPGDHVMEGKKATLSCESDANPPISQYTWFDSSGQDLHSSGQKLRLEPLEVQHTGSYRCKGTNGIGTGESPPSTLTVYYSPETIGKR
The assay is described as follows: SPR binding affinity to mouse CD22. Conditions: steady-state analysis. The gist of the method:
(§1)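 SialoExo pretreatment, 4 h 37° C.; biotinylated CD22 on SA chip, Biacore 8K. Buffer 10 mM HEPES, 150 mM NaCl, 0.05% Tween-20, pH 7.5, 1% DMSO. Dissociation 120 s; solvent-corrected; steady-state KD.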
(In general: Surface plasmon resonance follows binding to a sensor surface in real time, without labels.)

The target in assay [2] is T2, human Siglec-2/CD22 protein (Homo sapiens, UniProt P20273).
T2 construct: purchased Acro Biosystems SI2-H82E3
T2 sequence (P20273 20-847): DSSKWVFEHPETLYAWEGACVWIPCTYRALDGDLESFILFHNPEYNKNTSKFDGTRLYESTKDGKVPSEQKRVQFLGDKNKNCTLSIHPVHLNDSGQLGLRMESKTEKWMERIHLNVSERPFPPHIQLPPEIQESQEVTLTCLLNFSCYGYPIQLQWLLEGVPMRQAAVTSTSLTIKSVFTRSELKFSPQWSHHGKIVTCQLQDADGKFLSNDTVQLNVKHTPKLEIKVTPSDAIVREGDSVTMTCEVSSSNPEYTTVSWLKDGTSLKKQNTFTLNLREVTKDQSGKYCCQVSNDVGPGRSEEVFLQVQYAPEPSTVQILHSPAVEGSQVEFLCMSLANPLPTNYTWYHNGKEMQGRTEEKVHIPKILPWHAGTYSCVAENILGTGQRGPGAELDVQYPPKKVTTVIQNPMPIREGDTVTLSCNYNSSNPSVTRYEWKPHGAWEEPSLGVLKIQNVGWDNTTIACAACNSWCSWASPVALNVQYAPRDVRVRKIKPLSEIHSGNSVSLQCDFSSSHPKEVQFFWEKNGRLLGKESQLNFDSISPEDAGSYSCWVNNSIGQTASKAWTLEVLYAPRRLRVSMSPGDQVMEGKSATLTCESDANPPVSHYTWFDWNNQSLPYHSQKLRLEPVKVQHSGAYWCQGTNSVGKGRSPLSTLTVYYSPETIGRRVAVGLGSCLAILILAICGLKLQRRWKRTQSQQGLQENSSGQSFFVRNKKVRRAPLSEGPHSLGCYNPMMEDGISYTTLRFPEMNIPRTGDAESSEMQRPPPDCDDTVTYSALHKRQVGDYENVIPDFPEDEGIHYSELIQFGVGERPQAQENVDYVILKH
The assay is described as follows: SPR binding affinity to human CD22. The note with it: steady-state analysis. The gist of the method:
as §1

For a further assay, the target named is cynomolgus Siglec-2/CD22 (Macaca fascicularis, UniProt A0A2K5WCZ6). As to the kind of experiment: biochemical. In kind it is binding. Conditions: SPR, steady-state analysis; read-out: Affinity cyno CD22. Summed up: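 SPR with desialylated (SialoExo, 4 h, 37° C.) cynomolgus CD22 amine-coupled to a CM5 chip. Running buffer 10 mM HEPES, 150 mM NaCl, 0.05% Tween-20, pH 7.5, 1% DMSO, with solvent correction; 120 s dissociation. Affinities from steady-state analysis.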

Molecules are shown by their SMILES. Where only a bound is given, the exact number is not on record here.

cynomolgus Siglec-2/CD22, sequence (A0A2K5WCZ6 entry or part of it): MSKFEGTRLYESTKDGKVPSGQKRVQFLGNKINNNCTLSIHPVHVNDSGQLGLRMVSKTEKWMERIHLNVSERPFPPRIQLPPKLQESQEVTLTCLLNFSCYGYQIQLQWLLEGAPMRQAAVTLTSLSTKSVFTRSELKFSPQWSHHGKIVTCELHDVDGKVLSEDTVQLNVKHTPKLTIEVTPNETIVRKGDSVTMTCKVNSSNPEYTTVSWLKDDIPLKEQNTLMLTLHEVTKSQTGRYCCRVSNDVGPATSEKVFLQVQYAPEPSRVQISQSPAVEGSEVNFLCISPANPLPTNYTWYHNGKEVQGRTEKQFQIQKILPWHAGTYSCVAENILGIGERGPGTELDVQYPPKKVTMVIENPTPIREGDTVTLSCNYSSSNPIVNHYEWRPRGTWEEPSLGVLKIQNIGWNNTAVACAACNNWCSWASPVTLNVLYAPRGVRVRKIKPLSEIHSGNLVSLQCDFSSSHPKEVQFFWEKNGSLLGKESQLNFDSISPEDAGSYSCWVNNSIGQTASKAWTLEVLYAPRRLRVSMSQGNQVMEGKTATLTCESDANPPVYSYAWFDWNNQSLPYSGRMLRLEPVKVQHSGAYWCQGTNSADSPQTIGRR

For `C#CCOCCCCCCO[C@]1(C(=O)O)C[C@H](O)[C@@H](NC(=O)CO)[C@H]([C@H](O)[C@H](O)CNC(=O)Cc2cccc(OC(F)(F)F)c2)O1` [Compound 155, (2R,4S,5R,6R)-6-((1R,2R)-1,2-dihydroxy-3-(2-(3-(trifluoromethoxy)phenyl)acetamido)propyl)-4-hydroxy-5-(2-hydroxyacetamido)-2-((6-(prop-2-yn-1-yloxy)hexyl)oxy)tetrahydro-2H-pyran-2-carboxylic acid], the Kd in assay [1] is 1 to 10 µM; in assay [2] it was below 1 µM; on cynomolgus Siglec-2/CD22, below 1 µM.

As for `CCCCCC[C@H](O)[C@]1(C(=O)O)C[C@H](O)[C@@H](NC(=O)CO)[C@H]([C@H](O)[C@H](O)CNC(=O)Cc2ccc(Cl)cc2)O1` [Compound 203, (2S,4S,5R,6R)-6-((1R,2R)-3-(2-(4-chlorophenyl)acetamido)-1,2-dihydroxypropyl)-4-hydroxy-5-(2-hydroxyacetamido)-2-((S)-1-hydroxyheptyl)tetrahydro-2H-pyran-2-carboxylic acid], the Kd is 1 to 10 µM in assay [1], below 1 µM in assay [2] and below 1 µM at cynomolgus Siglec-2/CD22.

As for `C#CCOCCCCCCO[C@]1(C(=O)O)C[C@H](O)[C@@H](NC(=O)CO)[C@H]([C@H](O)[C@H](O)CNC(=O)Cc2ccc(Cl)c(O)c2)O1` [Compound 128, (2R,4S,5R,6R)-6-((1R,2R)-3-(2-(4-chloro-3-hydroxyphenyl)acetamido)-1,2-dihydroxypropyl)-4-hydroxy-5-(2-hydroxyacetamido)-2-((6-(prop-2-yn-1-yloxy)hexyl)oxy)tetrahydro-2H-pyran-2-carboxylic acid], the Kd (in assay [1]; in assay [2]; on cynomolgus Siglec-2/CD22) was below 1 µM each time.

For `C#CCOCCCCCCO[C@]1(C(=O)O)C[C@H](O)[C@@H](NC(=O)C(C)O)[C@H]([C@H](O)[C@H](O)CNC(=O)Cc2ccc(Cl)cc2)O1` (stereo partly drawn) [Compound 183, (2R,4S,5R,6R)-6-((1R,2R)-3-(2-(4-chlorophenyl)acetamido)-1,2-dihydroxypropyl)-4-hydroxy-5-(2-hydroxypropanamido)-2-((6-(prop-2-yn-1-yloxy)hexyl)oxy)tetrahydro-2H-pyran-2-carboxylic acid], the Kd in assay [1] is 1 to 10 µM; in assay [2] it was 1 to 10 µM; at cynomolgus Siglec-2/CD22 it was below 1 µM.

Regarding `C#CCOCCCCCCO[C@]1(C(=O)O)C[C@H](O)[C@@H](NC(=O)C(O)CO)[C@H]([C@H](O)[C@H](O)CNC(=O)Cc2ccc(Cl)cc2)O1` (stereo partly drawn) [Compound 210, (2R,4S,5R,6R)-6-((1R,2R)-3-(2-(4-chlorophenyl)acetamido)-1,2-dihydroxypropyl)-5-(2,3-dihydroxypropanamido)-4-hydroxy-2-((6-(prop-2-yn-1-yloxy)hexyl)oxy)tetrahydro-2H-pyran-2-carboxylic acid], the Kd in assay [1] was below 1 µM; in assay [2], 1 to 10 µM; on cynomolgus Siglec-2/CD22 it was below 1 µM.

Regarding `C#CCOCCOCCO[C@]1(C(=O)O)C[C@H](O)[C@@H](NC(=O)CO)[C@H]([C@H](O)[C@H](O)CNC(=O)Cc2ccc(-c3cccc(O)c3)cc2)O1` [Compound 78, (2R,4S,5R,6R)-6-((1R,2R)-1,2-dihydroxy-3-(2-(3′-hydroxy-[1,1′-biphenyl]-4-yl)acetamido)propyl)-4-hydroxy-5-(2-hydroxyacetamido)-2-(2-(2-(prop-2-yn-1-yloxy)ethoxy)ethoxy)tetrahydro-2H-pyran-2-carboxylic acid], the Kd is 1 to 10 µM in assay [1], below 1 µM in assay [2] and 1 to 10 µM at cynomolgus Siglec-2/CD22.

For `C#CCCOc1cccc(CO[C@]2(C(=O)O)C[C@H](O)[C@@H](NC(=O)CO)[C@H]([C@H](O)[C@H](O)CNC(=O)Cc3ccc(-c4ccccc4)cc3)O2)c1` [Compound 38, (2R,4S,5R,6R)-6-((1R,2R)-3-(2-([1,1′-biphenyl]-4-yl)acetamido)-1,2-dihydroxypropyl)-2-((3-(but-3-yn-1-yloxy)benzyl)oxy)-4-hydroxy-5-(2-hydroxyacetamido)tetrahydro-2H-pyran-2-carboxylic acid], the Kd (in assay [1]; in assay [2]; on cynomolgus Siglec-2/CD22) was below 1 µM in each case.

In the case of `C#CCOCCCCCCO[C@]1(C(=O)O)C[C@H](O)[C@@H](NC(=O)CO)[C@H]([C@H](O)[C@H](O)CNC(=O)Cc2ccc3[nH]ccc3c2)O1` [Compound 6, (2R,4S,5R,6R)-6-((1R,2R)-3-(2-(1H-indol-5-yl)acetamido)-1,2-dihydroxypropyl)-4-hydroxy-5-(2-hydroxyacetamido)-2-((6-(prop-2-yn-1-yloxy)hexyl)oxy)tetrahydro-2H-pyran-2-carboxylic acid], the Kd in assay [1] is 1 to 10 µM; in assay [2], below 1 µM; at cynomolgus Siglec-2/CD22, below 1 µM.

`C#CCOCCOCCO[C@]1(C(=O)O)C[C@H](O)[C@@H](NC(=O)CO)[C@H]([C@H](O)[C@H](O)CNC(=O)Cc2ccc(-c3ccccc3O)cc2)O1` [Compound 68, (2R,4S,5R,6R)-6-((1R,2R)-1,2-dihydroxy-3-(2-(2′-hydroxy-[1,1′-biphenyl]-4-yl)acetamido)propyl)-4-hydroxy-5-(2-hydroxyacetamido)-2-(2-(2-(prop-2-yn-1-yloxy)ethoxy)ethoxy)tetrahydro-2H-pyran-2-carboxylic acid]: the Kd in assay [1] was 1 to 10 µM; in assay [2], below 1 µM; at cynomolgus Siglec-2/CD22, 1 to 10 µM.

The record behind these values is US20250064941A1, “SIGLEC LIGANDS, CONJUGATES, AND METHODS OF USE THEREOF” (Osprey Biopharmaceuticals, Inc., priority 2023, published 2025).
